Series [1] concerns Streptococcus pneumoniae. Nature of the series: Antimicrobial activity against erythromycin-sensitive Streptococcus pneumoniae ATCC 6301. The series is classed as functional.
Series [2] deals with T1, hERG (KCNH2) (Homo sapiens, UniProt Q12809). The series can be described thus: Inhibition of human ERG at 30 uM.
The target of series [3] is T1, hERG (KCNH2). Nature of the series: Inhibition of human ERG at 300 uM.
The target in series [4] is Motilin receptor (Oryctolagus cuniculus, UniProt A5A4K8). The series can be described thus: Agonist activity at motilin receptor in rabbit smooth muscle assessed as maximal possible tissue contraction. The series is classed as functional.
Series [5] addresses Voltage-gated inwardly rectifying potassium channel KCNH2 (Homo sapiens, UniProt Q12809). The series can be described thus: Inhibition of human ERG.
For series [6], the target named is Motilin receptor (Oryctolagus cuniculus) (UniProt A5A4K8). Nature of the series: Agonist activity at motilin receptor in rabbit smooth muscle assessed as tachyphylaxis at EC90 concentration after 4th dose. The series is classed as functional.

Values after ≈ are worked out from the molar mass of the structure shown.

Chain of Motilin receptor (A5A4K8 whole entry): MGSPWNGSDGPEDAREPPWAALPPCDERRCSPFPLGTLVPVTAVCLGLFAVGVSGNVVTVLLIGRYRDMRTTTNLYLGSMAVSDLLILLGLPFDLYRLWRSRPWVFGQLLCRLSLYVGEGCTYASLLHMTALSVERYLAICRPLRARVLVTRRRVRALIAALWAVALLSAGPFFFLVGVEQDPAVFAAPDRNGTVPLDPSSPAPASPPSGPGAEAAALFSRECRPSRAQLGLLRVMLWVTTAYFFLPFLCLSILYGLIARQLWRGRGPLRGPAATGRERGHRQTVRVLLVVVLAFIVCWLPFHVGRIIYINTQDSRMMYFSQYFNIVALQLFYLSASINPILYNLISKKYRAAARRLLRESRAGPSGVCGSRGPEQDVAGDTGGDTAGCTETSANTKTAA
Chain of Motilin receptor (Oryctolagus cuniculus) (A5A4K8 as listed by the source): as the sequence (A5A4K8 whole entry) above
T1 sequence (Q12809 whole entry): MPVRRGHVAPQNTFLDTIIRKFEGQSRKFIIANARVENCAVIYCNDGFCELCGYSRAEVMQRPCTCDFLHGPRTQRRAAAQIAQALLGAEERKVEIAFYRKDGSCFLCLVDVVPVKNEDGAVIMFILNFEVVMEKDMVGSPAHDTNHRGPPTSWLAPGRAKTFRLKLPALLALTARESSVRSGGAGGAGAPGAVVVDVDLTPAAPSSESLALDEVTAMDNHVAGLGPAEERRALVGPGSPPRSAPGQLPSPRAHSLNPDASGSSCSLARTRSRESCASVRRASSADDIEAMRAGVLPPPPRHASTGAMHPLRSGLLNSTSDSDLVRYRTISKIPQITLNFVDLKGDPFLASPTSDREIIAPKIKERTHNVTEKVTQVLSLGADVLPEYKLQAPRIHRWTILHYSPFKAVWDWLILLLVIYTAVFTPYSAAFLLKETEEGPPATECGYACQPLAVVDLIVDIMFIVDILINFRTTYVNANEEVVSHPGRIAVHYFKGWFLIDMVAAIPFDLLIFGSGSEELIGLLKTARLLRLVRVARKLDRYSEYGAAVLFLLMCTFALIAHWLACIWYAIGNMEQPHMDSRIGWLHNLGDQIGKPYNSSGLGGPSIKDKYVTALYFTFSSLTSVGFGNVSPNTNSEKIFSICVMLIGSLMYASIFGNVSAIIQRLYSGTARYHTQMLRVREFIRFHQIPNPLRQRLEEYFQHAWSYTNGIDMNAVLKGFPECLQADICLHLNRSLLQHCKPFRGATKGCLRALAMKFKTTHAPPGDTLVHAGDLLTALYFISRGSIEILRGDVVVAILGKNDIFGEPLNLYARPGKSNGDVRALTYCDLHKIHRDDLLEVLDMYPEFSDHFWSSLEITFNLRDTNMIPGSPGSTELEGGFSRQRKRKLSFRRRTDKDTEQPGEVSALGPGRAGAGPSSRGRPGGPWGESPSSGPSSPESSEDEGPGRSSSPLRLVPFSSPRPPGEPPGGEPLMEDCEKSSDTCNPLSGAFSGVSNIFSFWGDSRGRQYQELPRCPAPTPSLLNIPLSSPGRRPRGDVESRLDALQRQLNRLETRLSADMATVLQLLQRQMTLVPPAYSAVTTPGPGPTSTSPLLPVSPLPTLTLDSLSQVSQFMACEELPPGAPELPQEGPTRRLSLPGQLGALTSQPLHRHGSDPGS
Chain of Voltage-gated inwardly rectifying potassium channel KCNH2 (Q12809 whole entry): as above

`CC[C@H]1OC(=O)[C@H](C)[C@@H](O[C@H]2C[C@@](C)(OC)C[C@H](C)O2)[C@H](C)[C@@H](O[C@@H]2O[C@H](C)C[C@H](N(C)C(C)C)[C@H]2O)[C@](C)(O)C[C@@H](C)[C@H](OCC(N)=O)[C@H](C)[C@@H](O)[C@]1(C)O`: in series [1], the MIC was > 128 mg/L. Moreover, in series [2], the inhibition at 30 µM was found to be 28%. This compound also came in with an inhibition at 300 µM in series [3] of 86%. The EC50 in series [4] stood at 0.036 µM.

Take `CC[C@H]1OC(=O)[C@H](C)[C@@H](O[C@H]2C[C@@](C)(OC)C[C@H](C)O2)[C@H](C)[C@@H](O[C@@H]2O[C@H](C)C[C@H](N(C)C(C)C)[C@H]2O)[C@](C)(O)C[C@@H](C)[C@H](OCC(=O)NC)[C@H](C)[C@@H](O)[C@]1(C)O`: in series [1], the lowest concentration to inhibit growth (MIC) was 128 mg/L (≈ 156 µM). The same compound returned an inhibition at 30 µM in series [2] of 57%. The same compound registered an inhibition at 300 µM in series [3] of 97%. In addition, in series [4], the EC50 is 0.017 µM. The compound also displayed an IC50 in series [5] of 30 µM.

In the case of `CC[C@H]1OC(=O)[C@H](C)[C@@H](O[C@H]2C[C@@](C)(OC)[C@@H](O)[C@H](C)O2)[C@H](C)[C@@H](O[C@@H]2O[C@H](C)C[C@H](N(C)C(C)C)[C@H]2O)[C@](C)(O)C[C@@H](C)[C@H](OCC(N)=O)[C@H](C)[C@@H](O)[C@]1(C)O`, the inhibition at 300 µM in series [3] turned out to be 29%.

Regarding `CC[C@H]1OC(=O)[C@H](C)[C@@H](O[C@H]2C[C@@](C)(OC)C[C@H](C)O2)[C@H](C)[C@@H](O[C@@H]2O[C@H](C)C[C@H](N(C)CC(=O)NC)[C@H]2O)[C@](C)(O)C[C@@H](C)[C@H](O)[C@H](C)[C@@H](O)[C@]1(C)O`, the EC50 in series [4] is > 5 µM.

Take `CC[C@H]1OC(=O)[C@H](C)[C@@H](O[C@H]2C[C@@](C)(OC)C[C@H](C)O2)[C@H](C)[C@@H](O[C@@H]2O[C@H](C)C[C@H](N(C)C3CCC3)[C@H]2O)[C@](C)(O)C[C@@H](C)[C@H](O)[C@H](C)[C@@H](O)[C@]1(C)O`: in series [1], the MIC is > 128 mg/L. In series [2], this compound registered an inhibition at 30 µM of 92%. For the same compound, in series [3], the inhibition at 300 µM came out at 100%. The EC50 in series [4] is 0.12 µM.

`CC[C@H]1OC(=O)[C@H](C)[C@@H](O[C@H]2C[C@@](C)(OC)C[C@H](C)O2)[C@H](C)[C@@H](O[C@@H]2O[C@H](C)C[C@H](N(C)C[C@H](C)O)[C@H]2O)[C@](C)(O)C[C@@H](C)[C@H](O)[C@H](C)[C@@H](O)[C@]1(C)O` yielded an MIC in series [1] of 128 mg/L (≈ 168 µM). Moreover, testing at 30 µM in series [2] gave an inhibition of 89%. Also, at 300 µM the inhibition in series [3] was 100%. Moreover, in series [4], the EC50 came out at 0.14 µM.

As for `CC[C@H]1OC(=O)[C@H](C)[C@@H](O[C@H]2C[C@@](C)(OC)C[C@H](C)O2)[C@H](C)[C@@H](O[C@@H]2O[C@H](C)C[C@H](N(C)C(C)C)[C@H]2O)[C@](C)(O)C[C@@H](C)[C@H](O)[C@H](C)[C@@H](O)[C@]1(C)O`, the Activity in series [6] is 88%. Moreover, the MIC in series [1] stood at 64 mg/L (≈ 85.6 µM). For the same compound, the inhibition at 30 µM in series [2] was 74%. The EC50 in series [4] was found to be 0.059 µM.

With `CC[C@H]1OC(=O)[C@H](C)[C@@H](O[C@H]2C[C@@](C)(OC)C[C@H](C)O2)[C@H](C)[C@@H](O[C@@H]2O[C@H](C)C[C@H](N(C)CCO)[C@H]2O)[C@](C)(O)C[C@@H](C)[C@H](O)[C@H](C)[C@@H](O)[C@]1(C)O`, the Activity in series [6] is 94%. Further, in series [1], the MIC was determined as 2 mg/L (≈ 2.67 µM). In series [2], this compound had an inhibition at 30 µM of 68%. The EC50 in series [4] is 0.063 µM.

Take `CC[C@H]1OC(=O)[C@H](C)[C@@H](O[C@H]2C[C@@](C)(OC)[C@@H](O)[C@H](C)O2)[C@H](C)[C@@H](O[C@@H]2O[C@H](C)C[C@H](N(C)C3CCC3)[C@H]2O)[C@](C)(O)C[C@@H](C)[C@H](O)[C@H](C)[C@@H](O)[C@]1(C)O`: the EC50 in series [4] was found to be 0.35 µM.

Consider `CC[C@H]1OC(=O)[C@H](C)[C@@H](O[C@H]2C[C@@](C)(OC)[C@@H](O)[C@H](C)O2)[C@H](C)[C@@H](O[C@@H]2O[C@H](C)C[C@H](N(C)CC(C)(C)O)[C@H]2O)[C@](C)(O)C[C@@H](C)[C@H](O)[C@H](C)[C@@H](O)[C@]1(C)O`, for which, in series [4], the EC50 came out at 0.1 µM.

As to `CC[C@H]1OC(=O)[C@H](C)[C@@H](O[C@H]2C[C@@](C)(OC)CC(C)O2)[C@H](C)[C@@H](O[C@@H]2O[C@H](C)C[C@H](N(C)CC)[C@H]2O)C2(C)CC(C)=C(O2)[C@H](C)[C@@H](O)[C@H]1C` (single isomer, unassigned), in series [6], the Activity is 9%.

`CC[C@H]1OC(=O)[C@H](C)[C@@H](O[C@H]2C[C@@](C)(OC)C[C@H](C)O2)[C@H](C)[C@@H](O[C@@H]2O[C@H](C)C[C@H](N(C)C(C)C)[C@H]2O)[C@](C)(O)C[C@@H](C)[C@H](OCC(=O)N(C)C)[C@H](C)[C@@H](O)[C@]1(C)O` showed an MIC in series [1] of 128 mg/L (≈ 154 µM). For the same compound, in series [2], at 30 µM the inhibition was 50%. For the same compound, testing at 300 µM in series [3] gave an inhibition of 100%. Also, the EC50 in series [4] turned out to be 0.19 µM.

With `CC[C@H]1OC(=O)[C@H](C)[C@@H](O[C@H]2C[C@@](C)(OC)[C@@H](O)[C@H](C)O2)[C@H](C)[C@@H](O[C@@H]2O[C@H](C)C[C@H](N(C)C(C)C)[C@H]2O)[C@]2(C)CC(C)=C(O2)[C@H](C)C(=O)[C@]1(C)OC`, the Activity in series [6] was 22%.

Compound `CC[C@H]1OC(=O)[C@H](C)[C@@H](O[C@H]2C[C@@](C)(OC)[C@@H](O)[C@H](C)O2)[C@H](C)[C@@H](O[C@@H]2O[C@H](C)C[C@H](N(C)C(C)C)[C@H]2O)[C@](C)(O)C[C@@H](C)[C@H](OCC(=O)N(C)C)[C@H](C)[C@@H](O)[C@]1(C)O` showed an inhibition at 300 µM in series [3] of 51%.

In turn, `CC[C@H]1OC(=O)[C@H](C)[C@@H](O[C@H]2C[C@@](C)(OC)C[C@H](C)O2)[C@H](C)[C@@H](O[C@@H]2O[C@H](C)C[C@H](N(C)CC(C)(C)O)[C@H]2O)[C@](C)(O)C[C@@H](C)[C@H](O)[C@H](C)[C@@H](O)[C@]1(C)O` displayed an MIC in series [1] of 128 mg/L (≈ 165 µM). For the same compound, the inhibition at 30 µM in series [2] was determined as 86%. Moreover, the inhibition at 300 µM in series [3] was found to be 100%. Besides, the EC50 in series [4] amounted to 0.024 µM.

On to `CC[C@H]1OC(=O)[C@H](C)[C@@H](O[C@H]2C[C@@](C)(OC)[C@@H](O)[C@H](C)O2)[C@H](C)[C@@H](O[C@@H]2O[C@H](C)C[C@H](N(C)C[C@H](C)O)[C@H]2O)[C@](C)(O)C[C@@H](C)[C@H](O)[C@H](C)[C@@H](O)[C@]1(C)O`, for which the EC50 in series [4] came to 0.36 µM.

Take `CC[C@H]1OC(=O)[C@H](C)[C@@H](O[C@H]2C[C@@](C)(OC)[C@@H](O)[C@H](C)O2)[C@H](C)[C@@H](O[C@@H]2O[C@H](C)C[C@H](N(C)CCO)[C@H]2O)[C@](C)(O)C[C@@H](C)[C@H](O)[C@H](C)[C@@H](O)[C@]1(C)O`: in series [4], the EC50 turned out to be 0.21 µM.

For orientation: MIC means the lowest concentration that inhibits growth of the organism. Low values mean greater potency, high ones weaker potency. As a reminder, the inhibition is the relative decrease from the control value, in per cent. The low end stands for a weak effect, the high end for a strong effect. For orientation: EC50 means the concentration giving half of the maximal effect. What is called IC50 is the concentration at which inhibition is half-maximal. Read a low IC50 as greater potency.

(Values after ChEMBL document CHEMBL1777727, “The role of the 4''-hydroxyl on motilin agonist potency in the 9-dihydroerythromycin series” (Bioorg Med Chem Lett, 2011).)
